Measurements reported in PubChem BioAssay AID1963965 (Molecular Pharmacology Branch, DTP, NCI, 2024).

Tested on: 996289-038-R-J1-PDC spheroid viability
Assay: Anticancer human tumor 996289-038-R-J1-PDC patient-derived colon adenocarcinoma cell line growth inhibition [PI3K]
Settings: spheroids with HUVEC and MSC; for IC50: curve of first compound; for viability, T/C: stronger effect = lower value
Procedure, shortened: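 Viability of mixed-cell spheroids was determined after exposure to pairwise combinations, one partner being inavolisib, alpelisib, duvelisib or copanlisib. Highest tested concentration matched clinical Cmax where known and 10 microM where not, descending in half-log steps.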

[1] = second compound 0.00316 µM, first compound 0.0316 µM
[2] = second compound 0.00316 µM, first compound 0.1 µM
[3] = second compound 0.00316 µM, first compound 0.316 µM
[4] = second compound 0.00316 µM, first compound 1 µM
[5] = second compound 0.00316 µM, first compound 3.16 µM
[6] = second compound 0.00316 µM, first compound 10 µM
[7] = second compound 0.01 µM, first compound 0.0316 µM
[8] = second compound 0.01 µM, first compound 0.1 µM
[9] = second compound 0.01 µM, first compound 0.316 µM
[10] = second compound 0.01 µM, first compound 1 µM
[11] = second compound 0.01 µM, first compound 3.16 µM
[12] = second compound 0.01 µM, first compound 10 µM
[13] = second compound 0.0316 µM, first compound 0.0316 µM
[14] = second compound 0.0316 µM, first compound 0.1 µM
[15] = second compound 0.0316 µM, first compound 0.316 µM
[16] = second compound 0.0316 µM, first compound 1 µM
[17] = second compound 0.0316 µM, first compound 3.16 µM
[18] = second compound 0.0316 µM, first compound 10 µM
[19] = second compound 0.1 µM, first compound 0.0316 µM
[20] = second compound 0.1 µM, first compound 0.1 µM
[21] = second compound 0.1 µM, first compound 0.316 µM
[22] = second compound 0.1 µM, first compound 1 µM
[23] = second compound 0.1 µM, first compound 3.16 µM
[24] = second compound 0.1 µM, first compound 10 µM
[25] = second compound 0.316 µM, first compound 0.0316 µM
[26] = second compound 0.316 µM, first compound 0.1 µM
[27] = second compound 0.316 µM, first compound 0.316 µM
[28] = second compound 0.316 µM, first compound 1 µM
[29] = second compound 0.316 µM, first compound 3.16 µM
[30] = second compound 0.316 µM, first compound 10 µM
[31] = second compound 1 µM, first compound 0.0316 µM
[32] = second compound 1 µM, first compound 0.1 µM
[33] = second compound 1 µM, first compound 0.316 µM
[34] = second compound 1 µM, first compound 1 µM
[35] = second compound 1 µM, first compound 3.16 µM
[36] = second compound 1 µM, first compound 10 µM
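Further: spheroids exposed to compounds for seven days before viability read.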
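Wherever viability, T/C is given: luminescence used as a proxy for viable cell amount; percent viability relative to DMSO vehicle control as 100%.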

For `Cn1ncc(Cl)c1-c1cc(C(=O)NC(CN)Cc2cccc(F)c2)sc1Cl` (centres undefined) + CC(Nc1ccc2c(c1)OCCn1cc(N3C(=O)OCC3C(F)F)nc1-2)C(N)=O, the IC50 (second compound 0.00316 µM) was greater than 10 µM, the IC50 (second compound 0.01 µM) was 7.33 µM and the IC50 (second compound 0.0316 µM) was 4.62 µM. For the same molecule, the IC50 (second compound 0.1 µM) was 1.84 µM, the IC50 (second compound 0.316 µM) was 1.83 µM and the IC50 (second compound 1 µM) was 0.352 µM. It also gave a viability, T/C [1] of 83.3%, a viability, T/C [2] of 82.9% and a viability, T/C [3] of 84.3%. For the same molecule, the viability, T/C [4] was 80%, the viability, T/C [5] was 60% and the viability, T/C [6] was 54.5%. For the same molecule, the viability, T/C [7] was 111%, the viability, T/C [8] was 97% and the viability, T/C [9] was 83.8%. For the same molecule, the viability, T/C [10] was 73.7%, the viability, T/C [11] was 58.6% and the viability, T/C [12] was 46.5%. It also gave a viability, T/C [13] of 87.2%, a viability, T/C [14] of 84.2% and a viability, T/C [15] of 76.6%. For the same molecule, the viability, T/C [16] was 64.8%, the viability, T/C [17] was 61.3% and the viability, T/C [18] was 35.5%. The viability, T/C [19] was 77.8%, the viability, T/C [20] was 80.2% and the viability, T/C [21] was 63.9%. For the same molecule, the viability, T/C [22] was 56%, the viability, T/C [23] was 46% and the viability, T/C [24] was 33.6%. The viability, T/C [25] was 66.9%, the viability, T/C [26] was 59.6% and the viability, T/C [27] was 75.7%. The viability, T/C [28] was 55.3%, the viability, T/C [29] was 43.2% and the viability, T/C [30] was 28.9%. The viability, T/C [31] was 53.5%, the viability, T/C [32] was 52.6% and the viability, T/C [33] was 52.6%. For the same molecule, the viability, T/C [34] was 43.9%, the viability, T/C [35] was 38.4% and the viability, T/C [36] was 25.8%.
`Cn1nccc1Nc1nccc(-c2ccn(C(CO)c3ccc(Cl)c(F)c3)c(=O)c2)n1` (centres undefined) + CC(Nc1ccc2c(c1)OCCn1cc(N3C(=O)OCC3C(F)F)nc1-2)C(N)=O gave an IC50 (second compound 0.00316 µM) greater than 10 µM, an IC50 (second compound 0.01 µM) greater than 10 µM and an IC50 (second compound 0.0316 µM) of 9.77 µM. For the same molecule, the IC50 (second compound 0.1 µM) was 9.01 µM, the IC50 (second compound 0.316 µM) was 4.82 µM and the IC50 (second compound 1 µM) was 2.25 µM. It also gave a viability, T/C [1] of 104%, a viability, T/C [2] of 98% and a viability, T/C [3] of 117%. The viability, T/C [4] was 106%, the viability, T/C [5] was 94.4% and the viability, T/C [6] was 58.4%. The viability, T/C [7] was 104%, the viability, T/C [8] was 95.3% and the viability, T/C [9] was 105%. For the same molecule, the viability, T/C [10] was 103%, the viability, T/C [11] was 70.8% and the viability, T/C [12] was 53.4%. For the same molecule, the viability, T/C [13] was 98.9%, the viability, T/C [14] was 110% and the viability, T/C [15] was 86.8%. It also gave a viability, T/C [16] of 93.6%, a viability, T/C [17] of 67.8% and a viability, T/C [18] of 50%. It also gave a viability, T/C [19] of 87.9%, a viability, T/C [20] of 89.6% and a viability, T/C [21] of 97.2%. It also gave a viability, T/C [22] of 81%, a viability, T/C [23] of 78.7% and a viability, T/C [24] of 46.8%. It also gave a viability, T/C [25] of 79.5%, a viability, T/C [26] of 74.5% and a viability, T/C [27] of 61.4%. It also gave a viability, T/C [28] of 67.6%, a viability, T/C [29] of 58.2% and a viability, T/C [30] of 39.5%. It also gave a viability, T/C [31] of 56.2%, a viability, T/C [32] of 64.4% and a viability, T/C [33] of 53.7%. For the same molecule, the viability, T/C [34] was 73.3%, the viability, T/C [35] was 45% and the viability, T/C [36] was 30.2%.
